# Earlier results as cited in patent US5032582A, “Method for treating fungal infections with amphotericin B/cholesterol sulfate composition” (Liposome Technology, Inc., priority 1989, dated 1991).
# Conditions: in vivo
compound,measurement,value
"CC(C)CCC[C@@H](C)[C@H]1CC[C@H]2[C@@H]3CC=C4C[C@@H](OS(=O)(=O)[O-])CC[C@]4(C)[C@H]3CC[C@]12C.[Na+] [cholesterol sulfate, cholesterol 3-sulphate, sodium salt]",toxicity,no known toxicity
